In patent US10647713B2 (Nimbus Lakshmi, Inc., priority 2016, dated 2020):
pKd: −log10 of the molar value.

Biological target: human TYK2 (JH2domain-pseudokinase) (Homo sapiens (Human), UniProt P29597)
Test: TYK2 JH2 Domain Binding Assay (KINOMEscan, DiscoveRx)
Conditions: 11-point dilution, duplicate
In short: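 Kd from duplicate 11-point 3-fold dilutions starting at 30,000 nM, fitted by Hill equation with slope fixed at −1. Compounds (final 0.9% DMSO) displace DNA-tagged HEK293-expressed TYK2 JH2 fusion (<0.1 nM) from ligand-coated beads over 1 h at room temperature; eluted kinase read by qPCR.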

human TYK2 (JH2domain-pseudokinase), sequence (P29597 556-888): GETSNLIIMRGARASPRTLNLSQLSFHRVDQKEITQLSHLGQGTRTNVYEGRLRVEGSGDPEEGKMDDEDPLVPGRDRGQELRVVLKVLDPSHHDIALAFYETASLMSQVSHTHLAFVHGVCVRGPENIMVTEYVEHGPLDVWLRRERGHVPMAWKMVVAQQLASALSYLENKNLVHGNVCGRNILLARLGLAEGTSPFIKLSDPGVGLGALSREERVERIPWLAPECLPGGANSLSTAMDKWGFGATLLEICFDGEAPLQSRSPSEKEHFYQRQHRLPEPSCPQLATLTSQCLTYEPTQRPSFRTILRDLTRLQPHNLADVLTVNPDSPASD

SMILES	pKd
Cn1ccc(-c2ccc(Nc3cc(NC(=O)C4CC4)nc4[nH]c(C(F)F)nc34)c(S(C)(=O)=O)c2)n1 [I-61, N-(2-(difluoromethyl)-7-((4-(1-methyl-1H-pyrazol-3-yl)-2-(methylsulfonyl)phenyl)amino)-3H-imidazo[4,5-b]pyridin-5-yl)cyclopropanecarboxamide]	9.30 to 10.00
Cn1cnc(-c2ccc(Nc3cc(NC(=O)C4CC4)nc4[nH]c(C(F)F)nc34)c(S(C)(=O)=O)c2)c1 [I-62, N-(2-(difluoromethyl)-7-((4-(1-methyl-1H-imidazol-4-yl)-2-(methylsulfonyl)phenyl)amino)-3H-imidazo[4,5-b]pyridin-5-yl)cyclopropanecarboxamide]	9.30 to 10.00
Cc1ccn(-c2ccc(Nc3cc(NC(=O)C4CC4)nc4[nH]c(C(F)F)nc34)c(S(C)(=O)=O)c2)n1 [I-63, N-(2-(difluoromethyl)-7-((4-(3-methyl-1H-pyrazol-1-yl)-2-(methylsulfonyl)phenyl)amino)-3H-imidazo[4,5-b]pyridin-5-yl)cyclopropanecarboxamide]	9.00 to 9.30
CN(c1cc(-c2cn(C)cn2)ccc1Nc1cc(NC(=O)C2CC2)nc2[nH]c(C(F)F)nc12)S(C)(=O)=O [I-64, N-(2-(difluoromethyl)-7-((4-(1-methyl-1H-imidazol-4-yl)-2-(N-methylmethylsulfonamido)phenyl)amino)-3H-imidazo[4,5-b]pyridin-5-yl)cyclopropanecarboxamide]	9.30 to 10.00
CN(c1cc(-c2cnn(C)c2)ccc1Nc1cc(NC(=O)C2CC2)nc2[nH]c(C(F)F)nc12)S(C)(=O)=O [I-65, N-(2-(difluoromethyl)-7-((4-(1-methyl-1H-pyrazol-4-yl)-2-(N-methylmethylsulfonamido)phenyl)amino)-3H-imidazo[4,5-b]pyridin-5-yl)cyclopropanecarboxamide]	9.30 to 10.00
COc1c(Nc2cc(Nc3cnc(C(C)(C)OC)c(C#N)n3)nc3[nH]c(C(F)F)nc23)cccc1-c1nnn(C)n1 [I-80, 6-((2-(difluoromethyl)-7-((2-methoxy-3-(2-methyl-2H-tetrazol-5-yl)phenyl)amino)-3H-imidazo[4,5-b]pyridin-5-yl)amino)-3-(2-methoxypropan-2-yl)pyrazine-2-carbonitrile]	8.00 to 9.00
CS(=O)(=O)c1cc(F)ccc1Nc1cc(NC(=O)C2CC2)nc2[nH]c(C(F)F)nc12 [I-85, N-(2-(difluoromethyl)-7-((4-fluoro-2-(methylsulfonyl)phenyl)amino)-3H-imidazo[4,5-b]pyridin-5-yl)cyclopropanecarboxamide]	9.00 to 9.30
CN(c1ccccc1Nc1cc(Nc2cccc(C(F)(F)F)n2)nc2[nH]c(C(F)F)nc12)S(C)(=O)=O [I-87, N-(2-((2-(difluoromethyl)-5-((6-(trifluoromethyl)pyridin-2-yl)amino)-3H-imidazo[4,5-b]pyridin-7-yl)amino)phenyl)-N-methylmethanesulfonamide]	9.00 to 9.30
CN(c1cc(N2CCC2)ccc1Nc1cc(NC(=O)C2CC2)nc2[nH]c(C(F)F)nc12)S(C)(=O)=O [I-89, N-(7-((4-(azetidin-1-yl)-2-(N-methylmethylsulfonamido)phenyl)amino)-2-(difluoromethyl)-3H-imidazo[4,5-b]pyridin-5-yl)cyclopropanecarboxamide]	9.00 to 9.30
Cc1ncc(Nc2cc(Nc3ccc(Cl)cc3N(C)S(C)(=O)=O)c3nc(C(F)F)[nH]c3n2)nc1C [I-93, N-(5-chloro-2-((2-(difluoromethyl)-5-((5,6-dimethylpyrazin-2-yl)amino)-3H-imidazo[4,5-b]pyridin-7-yl)amino)phenyl)-N-methylmethanesulfonamide]	9.30 to 10.00
CN(c1cc(Cl)ccc1Nc1cc(Nc2cccc(C#N)n2)nc2[nH]c(C(F)F)nc12)S(C)(=O)=O [I-94, N-(5-chloro-2-((5-((6-cyanopyridin-2-yl)amino)-2-(difluoromethyl)-3H-imidazo[4,5-b]pyridin-7-yl)amino)phenyl)-N-methylmethanesulfonamide]	9.00 to 9.30
Cc1ccc(Nc2cc(NC(=O)C3CC3)nc3[nH]c(C(F)F)nc23)c(N(C)S(C)(=O)=O)c1 [I-95, N-(2-(difluoromethyl)-7-((4-methyl-2-(N-methylmethylsulfonamido)phenyl)amino)-3H-imidazo[4,5-b]pyridin-5-yl)cyclopropanecarboxamide]	9.30 to 10.00
COCc1ccc(Nc2cc(NC(=O)C3CC3)nc3[nH]c(C(F)F)nc23)c(N(C)S(C)(=O)=O)c1 [I-96, N-(2-(difluoromethyl)-7-((4-(methoxymethyl)-2-(N-methylmethylsulfonamido)phenyl)amino)-3H-imidazo[4,5-b]pyridin-5-yl)cyclopropanecarboxamide]	9.30 to 10.00
Cc1ccc(Nc2cc(Nc3cnc(C)c(C)n3)nc3[nH]c(C(F)F)nc23)c(N(C)S(C)(=O)=O)c1 [I-97, N-(2-((2-(difluoromethyl)-5-((5,6-dimethylpyrazin-2-yl)amino)-3H-imidazo[4,5-b]pyridin-7-yl)amino)-5-methylphenyl)-N-methylmethanesulfonamide]	< 8.00
COc1c(Nc2cc(NC(=O)C3CC3)nc3[nH]c(C)nc23)cccc1-c1nnn(C)n1 [I-98, N-(7-((2-methoxy-3-(2-methyl-2H-tetrazol-5-yl)phenyl)amino)-2-methyl-3H-imidazo[4,5-b]pyridin-5-yl)cyclopropanecarboxamide]	9.00 to 9.30
COc1c(Nc2cc(Nc3ccc(C)nn3)nc3[nH]c(C)nc23)cccc1-c1nnn(C)n1 [I-100, N-7-(2-methoxy-3-(2-methyl-2H-tetrazol-5-yl)phenyl)-2-methyl-N5-(6-methylpyridazin-3-yl)-3H-imidazo[4,5-b]pyridine-5,7-diamine]	9.30 to 10.00
COc1c(Nc2cc(Nc3ccc(C)cn3)nc3[nH]c(C)nc23)cccc1-c1nnn(C)n1 [I-101, N7-(2-methoxy-3-(2-methyl-2H-tetrazol-5-yl)phenyl)-2-methyl-N5-(5-methylpyridin-2-yl)-3H-imidazo[4,5-b]pyridine-5,7-diamine]	8.00 to 9.00
COc1c(Cl)cccc1Nc1cc(NC(=O)C2CC2)nc2[nH]c(C)nc12 [I-103, N-(7-((3-chloro-2-methoxyphenyl)amino)-2-methyl-3H-imidazo[4,5-b]pyridin-5-yl)cyclopropanecarboxamide]	< 8.00
COc1c(F)cccc1Nc1cc(NC(=O)C2CC2)nc2[nH]c(C)nc12 [I-104, N-(7-((3-fluoro-2-methoxyphenyl)amino)-2-methyl-3H-imidazo[4,5-b]pyridin-5-yl)cyclopropanecarboxamide]	< 8.00
COc1c(C#N)cccc1Nc1cc(NC(=O)C2CC2)nc2[nH]c(C)nc12 [I-105, N-(7-((3-cyano-2-methoxyphenyl)amino)-2-methyl-3H-imidazo[4,5-b]pyridin-5-yl)cyclopropanecarboxamide]	< 8.00
COc1ccccc1Nc1cc(NC(=O)C2CC2)nc2[nH]c(C)nc12 [I-106, N-(7-((2-methoxyphenyl)amino)-2-methyl-3H-imidazo[4,5-b]pyridin-5-yl)cyclopropanecarboxamide]	< 8.00
COc1c(Nc2cc(NC(=O)C3CC3)nc3[nH]c(C)nc23)cccc1-c1cnn(C)c1 [I-107, N-(7-((2-methoxy-3-(1-methyl-1H-pyrazol-4-yl)phenyl)amino)-2-methyl-3H-imidazo[4,5-b]pyridin-5-yl)cyclopropanecarboxamide]	8.00 to 9.00
COc1c(Nc2cc(Nc3ccc(C(=O)N4CCCC4)c(C(F)(F)F)n3)nc3[nH]c(C)nc23)cccc1-c1nnn(C)n1 [I-108, (6-((7-((2-methoxy-3-(2-methyl-2H-tetrazol-5-yl)phenyl)amino)-2-methyl-3H-imidazo[4,5-b]pyridin-5-yl)amino)-2-(trifluoromethyl)pyridin-3-yl)(pyrrolidin-1-yl)methanone]	9.30 to 10.00
COc1c(Nc2cc(Nc3ccc(N4CCCC4=O)c(C#N)n3)nc3[nH]c(C)nc23)cccc1-c1nnn(C)n1 [I-109, 6-((7-((2-methoxy-3-(2-methyl-2H-tetrazol-5-yl)phenyl)amino)-2-methyl-3H-imidazo[4,5-b]pyridin-5-yl)amino)-3-(2-oxopyrrolidin-1-yl)picolinonitrile]	9.30 to 10.00
COc1cc(C(=O)N2CCCC2)ccc1Nc1cc(NC(=O)C2CC2)nc2[nH]c(C)nc12 [I-110, N-(7-((2-methoxy-4-(pyrrolidine-1-carbonyl)phenyl)amino)-2-methyl-3H-imidazo[4,5-b]pyridin-5-yl)cyclopropanecarboxamide]	8.00 to 9.00
COc1c(Nc2cc(Nc3cnc(C)c(C#N)n3)nc3[nH]c(C)nc23)cccc1-c1nnn(C)n1 [I-111, 6-((7-((2-methoxy-3-(2-methyl-2H-tetrazol-5-yl)phenyl)amino)-2-methyl-3H-imidazo[4,5-b]pyridin-5-yl)amino)-3-methylpyrazine-2-carbonitrile]	8.00 to 9.00
COc1c(Nc2cc(Nc3ccc(N4CC[C@H](OC)C4)c(C#N)n3)nc3[nH]c(C)nc23)cccc1-c1nnn(C)n1 [I-112, (S)-6-((7-((2-methoxy-3-(2-methyl-2H-tetrazol-5-yl)phenyl)amino)-2-methyl-3H-imidazo[4,5-b]pyridin-5-yl)amino)-3-(3-methoxypyrrolidin-1-yl)picolinonitrile]	9.30 to 10.00
COc1c(Nc2cc(Nc3ccc(N4CCC4)c(C#N)n3)nc3[nH]c(C)nc23)cccc1-c1nnn(C)n1 [I-113, 3-(azetidin-1-yl)-6-((7-((2-methoxy-3-(2-methyl-2H-tetrazol-5-yl)phenyl)amino)-2-methyl-3H-imidazo[4,5-b]pyridin-5-yl)amino)picolinonitrile]	9.30 to 10.00
COc1c(Nc2cc(NC(=O)C3CC3)nc3[nH]c(C)nc23)cccc1-c1nc(C)nn1C [I-114, N-(7-((3-(1,3-dimethyl-1H-1,2,4-triazol-5-yl)-2-methoxyphenyl)amino)-2-methyl-3H-imidazo[4,5-b]pyridin-5-yl)cyclopropanecarboxamide]	8.00 to 9.00
COc1c(Nc2cc(Nc3ccc(C(C)C)c(C#N)n3)nc3[nH]c(C)nc23)cccc1-c1nnn(C)n1 [I-115, 3-isopropyl-6-((7-((2-methoxy-3-(2-methyl-2H-tetrazol-5-yl)phenyl)amino)-2-methyl-3H-imidazo[4,5-b]pyridin-5-yl)amino)picolinonitrile]	8.00 to 9.00
